Results published in US7368453B2, “Quinazolinone compounds with reduced bioaccumulation” (Chiron Corporation, priority 2003, dated 2008).
Like-named read-outs stand apart in the source and are kept apart here.

Assay: Tissue half-life (t1/2) and Cmax in plasma, brain, kidney and liver after oral administration to CD-1 mice
Assay type: in vivo, mouse
Conditions: for half-life: male, mouse
[1] = liver t1/2, 30 mg/kg oral gavage (PO), read-out: Half-Lives (h) Liver (converted)
[2] = plasma t1/2, 30 mg/kg oral gavage (PO), read-out: Half-Lives (h) Plasma (converted)
[3] = kidney t1/2, 30 mg/kg oral gavage (PO), read-out: Half-Lives (h) Kidney (converted)

Compound | half-life (brain t1/2, 30 mg/kg oral gavage (PO), read-out: Half-Lives (h) Brain (converted)) [h] | half-life [1] [h] | half-life [2] [h] | half-life [3] [h] | Half-Lives (h) Brain (brain t1/2, 30 mg/kg oral gavage (PO)) [h] | Half-Lives (h) Liver (liver t1/2, 30 mg/kg oral gavage (PO)) [h] | Half-Lives (h) Plasma (plasma t1/2, 30 mg/kg oral gavage (PO)) [h]
COc1ccc(CCn2c(-c3cccnc3)nc3cc(N/C(=N/[C@H]4C[C@@H]5C[C@H]([C@@H]4C)C5(C)C)N4C[C@@H](C)N(C#N)[C@@H](C)C4)ccc3c2=O)c(F)c1 [Example 295] | 4.9 | 9.5 | 3.3 |  |  |  | 
COc1ccc(CCn2c(-c3cccnc3)nc3cc(N/C(=N/[C@H]4C[C@@H]5C[C@H]([C@@H]4C)C5(C)C)N4C[C@@H](C)N(O)[C@@H](C)C4)ccc3c2=O)c(F)c1 [Example 296, (3R,5S)-N-[3-{2-[2-fluoro-4-(methyloxy)phenyl]ethyl}-4-oxo-2-(3-pyridinyl)-3,4-dihydro-7-quinazolinyl]-4-hydroxy-3,5-dimethyl-N′-[(1R,2S,3S,5S)-2,6,6-trimethylbicyclo[3.1.1]hept-3-yl]-1-piperazinecarboximidamide] |  | 3.2 | 4.9 | 3.3 |  |  | 
COc1ccc(CCn2cnc3cc(N/C(=N/[C@H]4C[C@@H]5C[C@H]([C@@H]4C)C5(C)C)N4C[C@@H](C)N(C#N)[C@@H](C)C4)ccc3c2=O)c(F)c1 [Example 301, (3R,5S)-4-cyano-N-(3-{-[2-fluoro-4-(methyloxy)phenyl]ethyl}-4-oxo-3,4-dihydro-7-quinazolinyl]-3,5-dimethyl-N′-[(1R,2S,3S,5S)-2,6,6-trimethylbicyclo[3.1.1]hept-3-yl]-1-piperazinecarboximidamide] |  | 3.6 | 2.5 | 9.4 |  |  | 
C[C@@H]1[C@@H](/N=C(/Nc2ccc3c(=O)n(CCc4ccc(Cl)cc4Cl)cnc3c2)N2CC(O)C2)C[C@@H]2C[C@H]1C2(C)C [Example 337, N-{3-[2-(2,4-dichlorophenyl)ethyl]-4-oxo-3,4-dihydro-7-quinazolinyl}-3-hydroxy-N′-[(1R,2S,3S,5S)-2,6,6-trimethylbicyclo[3.1.1]hept-3-yl]-1-azetidinecarboximidamide] |  | 4.6 | 18.9 | 5.1 |  |  | 
(3S)-N-{3-[2-(4-chlorophenyl)ethyl]-4-oxo-2-piperidin-3-yl-3,4-dihydroquinazolin-7-yl}-3-methyl-5-oxo-N′-[(1S,2S,3S,5R)-2,6,6-trimethylbicyclo[3.1.1]hept-3-yl]piperazine-1-carboximdamide [Example 241] |  |  |  |  | 51 | 17 | 21
